Patent US9925263B2, “Liquid pharmaceutical formulations for injection comprising procaine and uses thereof” (EAGLE BIOLOGICS, INC., priority 2013, dated 2018)

Assays:
biosimilar ERBITUX® = assay: Viscosity of aqueous solutions of biosimilar ERBITUX® with viscosity-lowering agents; conditions: pH 7.0; for Viscosity / Fold Reduction: 0.25M agent; for Fold Reduction: vs phosphate buffer
REMICADE® = assay: Viscosity of aqueous solutions of […]® with viscosity-lowering agents; type: physicochemical; conditions: 0.25M agent, 25° C., pH 7.0
Description: (§1) (unless otherwise indicated).
An extrapolated zero-shear viscosity was determined from a plot of absolute viscosity versus shear rate.
Following reconstitution, the viscosity of each solution was measured using the microfluidic viscometer as described in previous examples. The solutions were then back-loaded into 1 mL BD insulin syringes with 27, 29, or 31 gauge fixed needles. The force required to extrude the concentrated […]® solutions was then measured using an Instron at a rate of displacement equivalent to a fluid flow rate of 3 mL/min. The expelled solution was collected from the syringe and analyzed by size-exclusion chromatography.

branded ERBITUX® = assay: Viscosity of aqueous solutions of branded ERBITUX®; type: physicochemical; conditions: 224 ± 4 mg/mL mAb; phosphate buffer or 0.25M BSAA; 25° C., pH 7.0
Text: as §1

HERCEPTIN® = assay: Viscosity of aqueous solutions of HERCEPTIN® with viscosity-lowering agents; type: physicochemical; conditions: 0.25M salt, 25° C., pH 7.0
Description: All viscosities of well-mixed aqueous mAb solutions were measured using either a mVROC microfluidic viscometer (RheoSense) or a DV2T cone and plate viscometer (Brookfield; “C & P”) after a 5 minute equilibration at 25° C. (unless otherwise indicated). The mVROC viscometer was equipped with an “A” or “B” chip, each manufactured with a 50 micron channel. Typically, 0.10 mL of protein solution was back-loaded into a gastight microlab instrument syringe (Hamilton; 100 μL), affixed to the chip, and measured at multiple flow rates, approximately 20%, 40%, and 60% of the maximum pressure for each chip. […] An average absolute viscosity and standard deviation was then calculated from at least these three measurements. The C & P viscometer was equipped with a CPE40 or CPE52 spindle (cone angle of 0.8° and 3.0°, respectively) and 0.50 mL samples were measured at multiple shear rates between 2 and 400 s^−1. Specifically, samples were measured for 30 seconds each at 22.58, 24.38, 26.25, 28.13, 30, 31.88, 45, 67.5, 90, 112.5, 135, 157.5, 180, 202.5, 247, 270, 292.5, 315, 337.5, 360, 382, 400 s^−1, starting at a shear rate that gave at least 10% torque, and continuing until instrument torque reached 100%. An extrapolated zero-shear viscosity was then determined from a plot of dynamic viscosity versus shear rate for the samples measured on a DV2T cone and plate viscometer. The extrapolated zero-shear viscosities reported are the average and standard deviation of at least three measurements.
Viscosities were measured using a RheoSense mVROC microfluidic viscometer equipped with an “A” or “B” chip.
Viscosities reported were measured on a RheoSense mVROC microfluidic viscometer.

biosimilar AVASTIN® = assay: Viscosity of aqueous solutions of biosimilar AVASTIN® with viscosity-lowering agents; type: physicochemical; conditions: 200 ± 5 mg/mL mAb, pH 7.0, 25° C.; [Salt] 0.25 M of anion; C & P viscometer
TYSABRI® = assay: Viscosity of aqueous solutions of TYSABRI® with viscosity-lowering agents; type: physicochemical; conditions: 230 ± 2 mg/mL TYSABRI; 0.25M agent; 25° C., pH 7.0

Compound: N=C(N)NCCC[C@H](N)C(=O)O.O=S(=O)(O)c1ccccc1 [BSAA, benzenesulfonic acid arginine]
- Viscosity (biosimilar ERBITUX®; 222 ± 5 mg/mL mAb, 25° C.): 53.4 ± 5.5 cP
- Biosimilar ERBITUX ® viscosity (biosimilar ERBITUX®; 224 ± 4 mg/mL mAb, phosphate buffer or 0.25M BSAA, 25° C.): 53.4 ± 5.5 cP
- Viscosity (biosimilar ERBITUX®; 225 ± 5 mg/mL mAb, 20° C.): 85.2 ± 0.6 cP
- Viscosity (biosimilar ERBITUX®; 225 ± 5 mg/mL mAb, 25° C.): 61.3 ± 0.9 cP
- Viscosity (biosimilar ERBITUX®; 225 ± 5 mg/mL mAb, 30° C.): 50.5 ± 1.9 cP
- Fold Reduction (biosimilar ERBITUX®; 222 ± 5 mg/mL mAb, 25° C.): ~21 fold
- Fold Reduction (biosimilar ERBITUX®; 222 ± 5 mg/mL mAb, 25° C., listed as BSA Arginine): 21.2 fold
- Viscosity (REMICADE®; 166 ± 4 mg/mL REMICADE): 26.7 ± 1.2 cP
- Viscosity (REMICADE®; 222 ± 6 mg/mL REMICADE): 92.3 ± 1.4 cP
- Branded ERBITUX ® viscosity (branded ERBITUX®): 44.1 ± 0.5 cP
- Viscosity (HERCEPTIN®; 254 ± 3 mg/mL HERCEPTIN): 75.4 ± 5.0 cP
- Viscosity (HERCEPTIN®; 270 ± 6 mg/mL HERCEPTIN): 115 ± 6 cP
- Viscosity (biosimilar AVASTIN®): 75.3 ± 0.4 cP
- Viscosity (TYSABRI®): 34.9 ± 1.3 cP
